Laboratory results taken from patent US20090192123A1, “Use of dipyridamole or mopidamole for treatment and prevention of thrombo-embolic diseases and disorders caused by excessive formation of Thrombin and/or by elevated expression of Thrombin receptors” (BOEHRINGER INGELHEIM INTERNATIONAL GMBH, priority 2003, published 2009).

Columns and labels:
[1] = tested on: Thrombin receptor (PAR-1); assay: Thrombin receptor (PAR-1) expression on platelets of post-stroke patients during treatment, flow cytometry with antibodies; type: in vivo, human; settings: for Thrombin receptor (PAR-1) SPAN 12 (intact receptor) / Thrombin receptor (PAR-1) WEDE 15 (cleaved receptor): platelets of stroke patients, relative number, mean ± SD; for Change of intact (complete) and cleaved Thrombin receptor expression on platelets, in words: stroke patients, course of treatment of 30 days / one month, platelets ex vivo
Method: In order to study the inhibition of Thrombin receptor expression, patients surviving a stroke have been treated with conventional antiplatelet therapy (oral ASA) or a combination of Dipyridamole and ASA (Aggrenox) and thrombin receptor expression was measured during the course of treatment of one month. The expression of the complete as well as the cleaved Thrombin receptor was measured by flow cytometry using well established antibody technology on platelets after venipuncture.
Inhibition of Thrombin Receptor Expression in Platelets—by the Dipyridamole
Table 1 represents the mean and standard deviation of the relative numbers of expressed intact as well as cleaved Thrombin receptors on platelets over time after initiation of treatment with either ASA or the combination of Dipyridamole and ASA.

[2] = ESPS-2 clinical study, compared with low-dose aspirin / aspirin alone; cited from earlier work
[3] = Baseline (n = 15), flow cytometry

CC(=O)Oc1ccccc1C(=O)O [ASA, acetylsalicalic acid]
Thrombin receptor (PAR-1) SPAN 12 (intact receptor) ([1]; 24 hr of treatment (n = 15)): 37 ± 7 | Thrombin receptor (PAR-1) WEDE 15 (cleaved receptor) ([1]; 24 hr of treatment (n = 15)): 21.9 ± 4.6 | Thrombin receptor (PAR-1) SPAN 12 (intact receptor) ([1]; 3 days of treatment (n = 15)): 28 ± 9 | Thrombin receptor (PAR-1) WEDE 15 (cleaved receptor) ([1]; 3 days of treatment (n = 15)): 15.3 ± 3.3 | Thrombin receptor (PAR-1) SPAN 12 (intact receptor) ([1]; 7 days of treatment (n = 15)): 24 ± 5 | Thrombin receptor (PAR-1) WEDE 15 (cleaved receptor) ([1]; 7 days of treatment (n = 15)): 17.1 ± 6.1 | Thrombin receptor (PAR-1) SPAN 12 (intact receptor) ([1]; 15 days of treatment (n = 14)): 26 ± 4.* | Thrombin receptor (PAR-1) WEDE 15 (cleaved receptor) ([1]; 15 days of treatment (n = 14)): 16.9 ± 7.5 | Thrombin receptor (PAR-1) SPAN 12 (intact receptor) ([1]; 30 days of treatment (n = 12)): 22 ± 7 | Thrombin receptor (PAR-1) WEDE 15 (cleaved receptor) ([1]; 30 days of treatment (n = 12)): 14.2 ± 5.0 | Thrombin receptor (PAR-1) SPAN 12 (intact receptor) [1, 3]: 34 ± 7 | Thrombin receptor (PAR-1) WEDE 15 (cleaved receptor) [1, 3]: 21.0 ± 5.3 | Change of intact (complete) and cleaved Thrombin receptor expression on platelets, in words [1]: mild reduction

OCCN(CCO)c1nc(N2CCCCC2)c2nc(N(CCO)CCO)nc(N3CCCCC3)c2n1 [Dipyridamole, 2,6-bis(diethanolamino)-4,8-dipiperidino-pyrimido[5,4-d]pyrimidine]
Reduction of stroke risk, in words [2]: as effective as low-dose aspirin | Change of intact (complete) and cleaved Thrombin receptor expression on platelets, in words [1]: significant reduction
